# Reference: ChEMBL document CHEMBL4138123, “Design, synthesis and biological evaluation of novel pyrazolochalcones as potential modulators of PI3K/Akt/mTOR pathway and inducers of apoptosis in breast cancer cells” (Eur J Med Chem, 2017)
# Experiments:
# Type in all cases: functional
# [1] = test system: A549; assay: Cytotoxicity against human A549/ATCC cells assessed as growth inhibition after 48 hrs by sulforhodamine B assay; details: A549, 48 h
# [2] = test system: SK-OV-3; assay: Cytotoxicity against human SKOV3 cells assessed as growth inhibition after 48 hrs by sulforhodamine B assay; details: SK-OV-3, 48 h
# [3] = test system: A498; assay: Cytotoxicity against human A498 cells assessed as growth inhibition after 48 hrs by sulforhodamine B assay; details: A498, 48 h
# [4] = test system: OVCAR-3; assay: Cytotoxicity against human OVCAR3 cells assessed as growth inhibition after 48 hrs by sulforhodamine B assay; details: OVCAR-3, 48 h
# [5] = test system: 786-0; assay: Cytotoxicity against human 786-0 cells assessed as growth inhibition after 48 hrs by sulforhodamine B assay; details: 786-0, 48 h
# [6] = test system: NCI-H522; assay: Cytotoxicity against human NCI-H522 cells assessed as growth inhibition after 48 hrs by sulforhodamine B assay; details: NCI-H522, 48 h
# [7] = test system: RXF 393; assay: Cytotoxicity against human RXF393 cells assessed as growth inhibition after 48 hrs by sulforhodamine B assay; details: RXF 393, 48 h
# [8] = test system: NCI/ADR-RES; assay: Cytotoxicity against human NCI/ADR-RES cells assessed as growth inhibition after 48 hrs by sulforhodamine B assay
# [9] = test system: MCF7; assay: Cytotoxicity against human MCF7 cells assessed as growth inhibition after 48 hrs by sulforhodamine B assay; details: MCF7, 48 h
# [10] = test system: NCI-H322M; assay: Cytotoxicity against human NCI-H322M cells assessed as growth inhibition after 48 hrs by sulforhodamine B assay; details: for CC50: read-out: LC50 (the source's name)
# [11] = test system: HOP-62; assay: Cytotoxicity against human HOP62 cells assessed as growth inhibition after 48 hrs by sulforhodamine B assay; details: HOP-62, 48 h
# [12] = test system: CCRF-CEM; assay: Cytotoxicity against human CCRF-CEM cells assessed as growth inhibition after 48 hrs by sulforhodamine B assay
# [13] = test system: OVCAR-8; assay: Cytotoxicity against human OVCAR8 cells assessed as growth inhibition after 48 hrs by sulforhodamine B assay; details: OVCAR-8, 48 h
# [14] = test system: MDA-MB-468; assay: Cytotoxicity against human MDA-MB-468 cells assessed as cell growth at 0.01 uM after 48 hrs by sulforhodamine B assay relative to control; details: MDA-MB-468, 48 h, read-out: Activity
# [15] = test system: MOLT-4; assay: Cytotoxicity against human MOLT4 cells assessed as cell growth at 0.01 uM after 48 hrs by sulforhodamine B assay relative to control; details: MOLT-4, 48 h, read-out: Activity
# [16] = test system: M14; assay: Cytotoxicity against human M14 cells assessed as cell growth at 100 uM after 48 hrs by sulforhodamine B assay relative to control; details: M14, 48 h, read-out: Activity
# [17] = test system: SN12C; assay: Cytotoxicity against human SN12C cells assessed as cell growth at 1 uM after 48 hrs by sulforhodamine B assay relative to control; details: read-out: Activity
# [18] = test system: SR; assay: Cytotoxicity against human SR cells assessed as cell growth at 0.1 uM after 48 hrs by sulforhodamine B assay relative to control; details: read-out: Activity
# [19] = test system: SK-MEL-5; assay: Cytotoxicity against human SK-MEL-5 cells assessed as cell growth at 1 uM after 48 hrs by sulforhodamine B assay relative to control; details: SK-MEL-5, 48 h, read-out: Activity
# [20] = test system: UO-31; assay: Cytotoxicity against human UO31 cells assessed as cell growth at 10 uM after 48 hrs by sulforhodamine B assay relative to control; details: UO-31, 48 h, read-out: Activity
# [21] = test system: SR; assay: Cytotoxicity against human SR cells assessed as cell growth at 1 uM after 48 hrs by sulforhodamine B assay relative to control; details: read-out: Activity
# [22] = test system: SR; assay: Cytotoxicity against human SR cells assessed as cell growth at 10 uM after 48 hrs by sulforhodamine B assay relative to control; details: read-out: Activity
# [23] = test system: MDA-MB-435; assay: Cytotoxicity against human MDA-MB-435 cells assessed as cell growth at 10 uM after 48 hrs by sulforhodamine B assay relative to control; details: MDA-MB-435, 48 h, read-out: Activity
# [24] = test system: NCI-H322M; assay: Cytotoxicity against human NCI-H322M cells assessed as cell growth at 0.1 uM after 48 hrs by sulforhodamine B assay relative to control; details: read-out: Activity
# [25] = test system: HCC 2998; assay: Cytotoxicity against human HCC2998 cells assessed as cell growth at 10 uM after 48 hrs by sulforhodamine B assay relative to control; details: HCC 2998, 48 h, read-out: Activity
# [26] = test system: RPMI-8226; assay: Cytotoxicity against human RPMI8226 cells assessed as cell growth at 100 uM after 48 hrs by sulforhodamine B assay relative to control; details: RPMI-8226, 48 h, read-out: Activity
# [27] = test system: OVCAR-8; assay: Cytotoxicity against human OVCAR8 cells assessed as cell growth at 0.1 uM after 48 hrs by sulforhodamine B assay relative to control; details: OVCAR-8, 48 h, read-out: Activity
# [28] = test system: SN12C; assay: Cytotoxicity against human SN12C cells assessed as cell growth at 100 uM after 48 hrs by sulforhodamine B assay relative to control; details: read-out: Activity
# [29] = test system: SN12C; assay: Cytotoxicity against human SN12C cells assessed as cell growth at 0.01 uM after 48 hrs by sulforhodamine B assay relative to control; details: read-out: Activity
# [30] = test system: CCRF-CEM; assay: Cytotoxicity against human CCRF-CEM cells assessed as cell growth at 100 uM after 48 hrs by sulforhodamine B assay relative to control; details: read-out: Activity
# [31] = test system: SN12C; assay: Cytotoxicity against human SN12C cells assessed as cell growth at 10 uM after 48 hrs by sulforhodamine B assay relative to control; details: read-out: Activity
# [32] = test system: NCI-H522; assay: Cytotoxicity against human NCI-H522 cells assessed as cell growth at 0.1 uM after 48 hrs by sulforhodamine B assay relative to control; details: NCI-H522, 48 h, read-out: Activity
# [33] = test system: UO-31; assay: Cytotoxicity against human UO31 cells assessed as cell growth at 100 uM after 48 hrs by sulforhodamine B assay relative to control; details: UO-31, 48 h, read-out: Activity
# [34] = test system: K562; assay: Cytotoxicity against human K562 cells assessed as cell growth at 10 uM after 48 hrs by sulforhodamine B assay relative to control; details: K562, 48 h, read-out: Activity
# [35] = test system: RPMI-8226; assay: Cytotoxicity against human RPMI8226 cells assessed as cell growth at 0.01 uM after 48 hrs by sulforhodamine B assay relative to control; details: RPMI-8226, 48 h, read-out: Activity
# [36] = test system: T47D; assay: Cytotoxicity against human T47D cells assessed as cell growth at 0.01 uM after 48 hrs by sulforhodamine B assay relative to control; details: read-out: Activity
smiles,measurement,setting,value
COc1ccc(-c2cc(/C=C/C(=O)c3ccc4c(c3)OCO4)[nH]n2)cc1OC,GI50,[1],2.25 µM
same,GI50,[2],3.13 µM
same,GI50,[3],1.27 µM
same,GI50,[4],1.96 µM
same,GI50,[5],1.81 µM
same,GI50,[6],1.69 µM
same,GI50,[7],1.92 µM
same,GI50,[8],3.43 µM
same,GI50,[9],0.93 µM
same,GI50,[10],2.67 µM
same,GI50,[11],1.73 µM
same,GI50,[12],0.36 µM
same,GI50,[13],2.63 µM
COc1ccc(-c2cc(/C=C/C(=O)c3ccc(N)cc3)[nH]n2)cc1OC,GI50,[1],2.75 µM
same,LC50 (concentration giving 50% net cell kill),[1],45.2 µM
same,TGI,[1],10.1 µM
same,growth at 0.01 µM,[14],94%
same,GI50,[2],4.86 µM
same,LC50,[2],41.3 µM
same,TGI,[2],16.8 µM
same,growth at 0.01 µM,[15],108%
same,growth at 100 µM,[16],-90%
same,growth at 1 µM,[17],93%
same,GI50,[3],2.37 µM
same,LC50,[3],26.2 µM
same,TGI,[3],7.09 µM
same,growth at 0.1 µM,[18],104%
same,GI50,[4],1.92 µM
same,LC50,[4],9.14 µM
same,TGI,[4],4.19 µM
same,GI50,[5],1.88 µM
same,LC50,[5],10.8 µM
same,TGI,[5],4.39 µM
same,GI50,[6],1.65 µM
same,LC50,[6],6.3 µM
same,TGI,[6],3.22 µM
same,growth at 1 µM,[19],94%
same,growth at 10 µM,[20],11%
same,growth at 1 µM,[21],34%
same,growth at 10 µM,[22],-13%
same,growth at 10 µM,[23],-15%
same,GI50,[7],2.15 µM
same,LC50 (concentration killing 50% of cells),[7],15.9 µM
same,TGI,[7],5.12 µM
same,GI50,[8],6.21 µM
same,LC50,[8],> 100 µM
same,TGI,[8],> 100 µM
same,growth at 0.1 µM,[24],102%
same,GI50,[9],2.28 µM
same,LC50,[9],71.2 µM
same,TGI,[9],8.48 µM
same,growth at 10 µM,[25],-75%
same,growth at 100 µM,[26],-40%
same,growth at 0.1 µM,[27],99%
same,growth at 100 µM,[28],-90%
same,growth at 0.01 µM,[29],101%
same,GI50,[10],4.34 µM
same,TGI,[10],16.5 µM
same,CC50,[10],46.2 µM
same,GI50,[11],2.8 µM
same,LC50,[11],32 µM
same,TGI,[11],9.67 µM
same,growth at 100 µM,[30],-22%
same,growth at 10 µM,[31],14%
same,GI50,[12],1.74 µM
same,LC50 (concentration killing 50% of cells),[12],> 100 µM
same,TGI,[12],7.81 µM
same,GI50,[13],2.95 µM
same,LC50,[13],39 µM
same,TGI,[13],10.5 µM
same,growth at 0.1 µM,[32],95%
same,growth at 100 µM,[33],-85%
same,growth at 10 µM,[34],3%
same,growth at 0.01 µM,[35],98%
same,growth at 0.01 µM,[36],85%
COc1ccc(C(=O)/C=C/c2cc(-c3ccc(OC)c(OC)c3)n[nH]2)cc1OC,GI50,[1],2.25 µM
same,TGI,[1],10.2 µM
same,growth at 0.01 µM,[14],87%
same,GI50,[2],3.13 µM
same,TGI,[2],33.3 µM
same,growth at 0.01 µM,[15],103%
same,growth at 100 µM,[16],-51%
same,growth at 1 µM,[17],85%
same,GI50,[3],1.27 µM
same,TGI,[3],3.2 µM
same,growth at 0.1 µM,[18],81%
same,GI50,[4],1.96 µM
same,TGI,[4],4.72 µM
same,GI50,[5],1.81 µM
same,TGI,[5],5.14 µM
same,GI50,[6],1.69 µM
same,TGI,[6],3.9 µM
same,growth at 1 µM,[19],86%
same,growth at 10 µM,[20],-52%
same,growth at 1 µM,[21],5%
same,growth at 10 µM,[23],-69%
same,GI50,[7],1.45 µM
same,TGI,[7],2.98 µM
same,GI50,[8],3.43 µM
same,TGI,[8],33.1 µM
same,growth at 0.1 µM,[24],105%
same,GI50,[9],0.937 µM
same,TGI,[9],8.02 µM
same,growth at 10 µM,[25],-94%
same,growth at 100 µM,[26],-38%
same,growth at 0.1 µM,[27],98%
same,growth at 100 µM,[28],-37%
same,growth at 0.01 µM,[29],101%
same,GI50,[10],2.67 µM
same,TGI,[10],8.23 µM
same,CC50,[10],> 100 µM
same,GI50,[11],1.73 µM
same,TGI,[11],5.6 µM
same,growth at 100 µM,[30],-20%
same,growth at 10 µM,[31],-40%
same,GI50,[12],0.364 µM
same,TGI,[12],5.52 µM
same,GI50,[13],2.63 µM
same,TGI,[13],22.5 µM
same,growth at 0.1 µM,[32],94%
same,growth at 100 µM,[33],-68%
same,growth at 10 µM,[34],3%
same,growth at 0.01 µM,[35],98%
same,growth at 0.01 µM,[36],82%
